Values of other authors as cited in PMC3171802 (Chemistry & biology, 2011).

Tested on: Ba/F3 cells transformed to IL-3 independence by overexpression of PIM1 or PIM2
Details: ref Pogacic et al., 2007

CC(=O)c1cccc(-c2cnc3ccc(NCC4CC4)nn23)c1 [Compound K00135]
survival of Ba/F3 cells transformed by PIM1 or PIM2: significantly impaired survival
